The test concerns the target T1, RET V804L (Homo sapiens, UniProt P07949, V804L).
T1 construct: purchased Thermo Fisher Scientific (Life Technologies) SelectScreen
Briefly: SelectScreen Z'LYTE. It counts as biochemical. In a few lines:
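Percent values come from Thermo SelectScreen profiling of NU5455, combining activity and binding assays. CSF1R was run in Z'LYTE format at Km app ATP, and CAMK1 in Adapta format with ATP listed at 10.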

T1 sequence (P07949 29-1114 V804L): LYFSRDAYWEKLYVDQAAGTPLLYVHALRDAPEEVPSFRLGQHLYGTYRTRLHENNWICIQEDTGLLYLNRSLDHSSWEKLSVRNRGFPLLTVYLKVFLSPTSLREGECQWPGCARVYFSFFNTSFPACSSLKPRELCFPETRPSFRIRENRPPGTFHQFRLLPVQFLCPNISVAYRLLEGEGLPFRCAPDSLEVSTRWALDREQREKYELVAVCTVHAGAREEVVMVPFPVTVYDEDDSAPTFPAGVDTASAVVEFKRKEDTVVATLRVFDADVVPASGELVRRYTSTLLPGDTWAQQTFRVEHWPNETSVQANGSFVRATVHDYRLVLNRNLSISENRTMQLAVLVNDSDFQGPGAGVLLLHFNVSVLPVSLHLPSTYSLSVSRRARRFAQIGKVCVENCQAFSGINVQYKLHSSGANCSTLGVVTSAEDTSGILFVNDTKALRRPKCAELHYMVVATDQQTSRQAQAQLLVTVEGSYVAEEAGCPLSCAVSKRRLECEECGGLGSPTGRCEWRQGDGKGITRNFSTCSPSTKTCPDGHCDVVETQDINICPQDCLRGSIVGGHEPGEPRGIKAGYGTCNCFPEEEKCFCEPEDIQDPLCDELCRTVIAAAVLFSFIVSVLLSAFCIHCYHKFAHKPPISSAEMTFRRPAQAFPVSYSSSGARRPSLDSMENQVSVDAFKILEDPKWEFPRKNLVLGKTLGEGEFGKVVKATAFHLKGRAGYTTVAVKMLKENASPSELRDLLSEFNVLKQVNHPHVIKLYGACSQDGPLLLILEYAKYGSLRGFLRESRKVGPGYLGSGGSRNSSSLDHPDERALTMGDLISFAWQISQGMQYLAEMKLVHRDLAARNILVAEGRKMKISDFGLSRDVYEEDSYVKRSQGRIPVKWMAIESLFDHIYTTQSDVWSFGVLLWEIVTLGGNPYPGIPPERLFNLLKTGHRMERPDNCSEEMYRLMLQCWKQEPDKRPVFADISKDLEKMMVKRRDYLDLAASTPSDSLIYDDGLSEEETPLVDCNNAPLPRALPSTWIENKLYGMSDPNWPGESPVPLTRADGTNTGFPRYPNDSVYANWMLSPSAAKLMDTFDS

Broadly, the inhibition is the change of the read-out against control, counted positive when it falls. In the case of `CN(C(=O)CN1CCOCC1)c1ccc2sc3c(-c4cccc5c(=O)cc(N6CC7CCC(C6)O7)oc45)cccc3c2c1` [NU5455], the inhibition at 1 µM is -9.1%.

For the origin of these results see publication PMC6934184, “Selective DNA-PKcs inhibition extends the therapeutic index of localized radiotherapy and chemotherapy” (The Journal of Clinical Investigation, 2019).
